The text below walks through data of patent publication US11879895B2, “Intercellular proximity labeling using eGRASP” (Seoul National University R&DB Foundation, priority 2018, dated 2024).

For one experiment, the target named is T1, Abl SH3 peptide (Homo sapiens, UniProt P00519).
T1 construct: IgG kappa signal peptide (N)
Nature of the experiment: Binding of Abl SH3 binding peptide to Abl SH3 peptide of post-eGRASP. The conditions noted are these: p32 compared with p30. The method, then:
(3) Abl SH3 binding peptide contained in Pre-eGRASP had p30 (APTKPPPLPP) or p32 (SPSYSPPPPP) sequence. p32 was bound more strongly to Abl SH3 peptide of post-eGRASP than p30. Therefore, in this example, a cyan pre-eGRASP designed to be continuously expressed was prepared using p30, and in this example, yellow pre-eGRASP designed to start to be expressed from a specific time point when memory starts to be formed was prepared using p32, thereby matching the balance of cyan fluorescence and yellow fluorescence.

Another experiment relates to HEK293T cells. Nature of the experiment: GRASP signal at the interface of separately nucleofected HEK293T cells. In kind it is cell-based, human. The conditions noted are these: pre- and post-constructs transduced into separate HEK293T cells through nucleofection. The text has this: According to still another embodiment of the present disclosure, the first labeling material or the second labeling material may further comprise a first binding-enhancing site or a second binding-enhancing site, respectively. Specifically, when the first labeling material and the second labeling material are located in close proximity, the first labeling material and the second labeling material are bound to each other to generate a signal. In order to assist the binding, the first labeling material and the second labeling material may further comprise a first binding-enhancing site and a second binding-enhancing site, respectively. The first binding-enhancing site and the second binding-enhancing site may form a binding with each other. Therefore, when the first labeling material and the second labeling material are adjacent to each other, the first binding-enhancing site and the second binding-enhancing site are bound to assist the binding of the first labeling material and the second labeling material.
The upper figure of FIG. 5a is a result when either post-mGRASP or mCherry-binding pre-mGRASP co-expressing mTagBFP2 was transduced into HEK293T cells through nucleofection. […] Peptide p40 (APTYSPPPPP) was bound to a SH3 domain in the post-eGRASP structure to enhance GRASP signals. […]

Another experiment deals with DG. Nature of the experiment: Validation of the Fos-rtTA system with seizures. In kind it is in vivo, mice. The conditions noted are these: injection of seizure inducer, doxycycline 2 hours before. The method, then:
FIGS. 8a to 8c show the results of validation experiments of the Fos-rtTA system with seizures. FIG. 8a is a schematic illustration of the injected AAV, in which the nuclear target mEmerald (mEmerald-Nuc) was regulated by the TRE3G promoter that were regulated by rtTA3G expressed by the Fos promoter, and the nuclear target mCherry regulated by CaMKIIα was used for an expression control.
Doxycycline was injected 2 hours before seizure induction or contextual fear conditioning (CFC) to successfully label activated cells during each event (FIGS. 8A to 8C and FIGS. 9A to 9D). FIGS. 8a to 8c show the results of validation experiments of the Fos-rtTA system with seizures. FIG. 8a is a schematic illustration of the injected AAV, in which the nuclear target mEmerald (mEmerald-Nuc) was regulated by the TRE3G promoter regulated by rtTA3G expressed by the Fos promoter, and the nuclear target mCherry regulated by CaMKIIα was used as an expression control. […] FIGS. 9a to 9d show the results of the verification experiment of the Fos-rtTA system using CFC. […] FIG. 9b is a diagram showing a timetable of actions used in the experiment.

T1 sequence (P00519 with tags, fused parts or gaps): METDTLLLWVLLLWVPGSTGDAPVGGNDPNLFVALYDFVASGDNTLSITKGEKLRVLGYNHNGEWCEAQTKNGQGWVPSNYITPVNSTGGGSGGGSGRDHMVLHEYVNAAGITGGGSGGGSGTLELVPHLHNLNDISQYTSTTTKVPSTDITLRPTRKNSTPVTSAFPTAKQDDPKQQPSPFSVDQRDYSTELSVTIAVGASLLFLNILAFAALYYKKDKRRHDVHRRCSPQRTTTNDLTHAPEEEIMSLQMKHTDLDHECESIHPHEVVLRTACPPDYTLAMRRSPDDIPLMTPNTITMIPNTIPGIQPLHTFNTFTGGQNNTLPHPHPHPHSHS

On to SPSYSPPPPP ((synthetic) p32), for which the “binding to Abl SH3 peptide, relative” value with Abl SH3 peptide is on record as “more strongly”.

“S72A: Additional S72A mutation in strands 1-10 of the split GFP; SEQ ID NO: 2”: in the experiment on HEK293T cells, the “GRASP signal at the interface between cells” value was “GRASP signal increases”.

`C1CCc2nnnn2CC1` [Pentylenetetrazol]: in the experiment with DG, the “mEmerald-Nuc signal in DG” value is recorded as “strong mEmerald-Nuc signal”.
